Data on seven compounds can be found in publication PMC4794339 (Molecular and biochemical parasitology, 2016).

For experiment [1], the target named is T1, T. cruzi glucokinase (TcGlcK) (Trypanosoma cruzi, UniProt Q4E4E1). The format is biochemical. As to conditions: for LE (ligand efficiency): LE = −RTlnKi/N, N non-hydrogen atoms, TcGlcK inhibition; for TcGlcK selectivity ratio: Ki (HsHxKIV) / Ki (TcGlcK); for fold weaker TcGlcK inhibition compared to CBZ-GlcN: ratio of Ki values.
Experiment [2] concerns T. cruzi (Tulahuen strain) intracellular amastigotes. Kind of experiment: intracellular amastigote growth inhibition in NIH-3T3 fibroblasts. The following applies: for changes in the percent activity: at 50 μM, highest concentration tested. The format is cell-based, Trypanosoma cruzi.
For a further experiment, the target named is TbHxK. The following applies: read-out: Ki, TbHxK; cited from earlier work.
For experiment [3], the target named is T1, T. cruzi glucokinase (TcGlcK). The following applies: read-out: KM for D-glucose, TcGlcK; room temperature, pH 8.5; cited from earlier work.
Experiment [4] concerns the target T2, Homo sapiens hexokinase IV (HsHxKIV) (Homo sapiens, UniProt P35557).
T2 sequence (P35557 12-457 limits assumed): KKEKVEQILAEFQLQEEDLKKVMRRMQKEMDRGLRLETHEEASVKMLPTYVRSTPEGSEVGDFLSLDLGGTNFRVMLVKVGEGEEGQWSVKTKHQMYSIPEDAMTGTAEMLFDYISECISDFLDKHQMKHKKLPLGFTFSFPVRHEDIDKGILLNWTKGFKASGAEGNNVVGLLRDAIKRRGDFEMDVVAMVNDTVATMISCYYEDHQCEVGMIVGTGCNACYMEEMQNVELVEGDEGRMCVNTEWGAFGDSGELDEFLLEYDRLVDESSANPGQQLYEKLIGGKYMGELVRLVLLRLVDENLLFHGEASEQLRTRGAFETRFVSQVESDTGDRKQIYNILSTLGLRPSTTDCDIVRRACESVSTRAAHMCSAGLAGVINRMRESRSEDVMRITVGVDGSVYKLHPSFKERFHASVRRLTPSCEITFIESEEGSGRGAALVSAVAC
As to conditions: read-out: KM for D-glucose, non-His-tagged wt-HsHxKIV; cited from earlier work.

Experiment [5] has as its target T2, Homo sapiens hexokinase IV (HsHxKIV). The format is biochemical. As to conditions: read-out: KM for D-glucose, His6-HsHxKIV; truncated construct; 22 °C, pH 7.6.
Experiment [6] relates to T. cruzi hexokinase (TcHxK). The following applies: read-out: KM for D-glucose catalysis, TcHxK; cited from earlier work.
The test system of a further experiment is T. cruzi parasites. The following applies: acute stage; cited from earlier work.
Experiment [7] relates to T. cruzi (Tulahuen strain) intracellular amastigotes. The following applies: read-out: T. cruzi IC50, reported value, cited from earlier work.
The mark [8] stands for this setting: ratio of amastigote IC50 values.

Read-outs that look alike come from different tables or passages of the source.

Regarding `O=C(N[C@H]1C(O)O[C@H](CO)[C@@H](O)[C@@H]1O)c1ccccc1` (stereo partly drawn) [BENZ-GlcN, 2-benzamido-2-deoxy-D-glucopyranose], the “LE (ligand efficiency)” value in experiment [1] is reported as 0.30 kcal/mol. For the same compound, in experiment [2] (setting [8]), the “fold weaker inhibition effect compared to amphotericin B” value is 34 fold and the “fold weaker inhibition effect compared to benznidazole” value was 14 fold.

Consider `O=C(N[C@H]1C(O)O[C@H](CO)[C@@H](O)[C@@H]1O)OCc1ccccc1` (stereo partly drawn) [CBZ-GlcN, 2-N-carboxybenzyl-2-deoxy-D-glucosamine], for which, in experiment [1], the TcGlcK selectivity ratio was found to be 245 and the “LE (ligand efficiency)” value amounted to 0.38 kcal/mol.

For `O=C(CCc1ccc(O)cc1)N[C@H]1C(O)O[C@H](CO)[C@@H](O)[C@@H]1O` (stereo partly drawn) [HPOP-GlcN, 2-[[3-(4-hydroxyphenyl)-1-oxopropyl]amino]-2-deoxy-D-glucosamine], in [1], the TcGlcK selectivity ratio was 186, the “LE (ligand efficiency)” value turned out to be 0.35 kcal/mol and the “fold weaker TcGlcK inhibition compared to CBZ-GlcN” value is listed as 1.8 fold. In experiment [2], the “changes in the percent activity” value is “not significant”.

As to `O=C(N[C@H]1C(O)O[C@H](CO)[C@@H](O)[C@@H]1O)c1cccc(Br)c1` (stereo partly drawn) [m-bromo-benzoyl glucosamine], the Ki at TbHxK was 2.8 µM.

Turning to `O=C(N[C@H]1C(O)O[C@H](CO)[C@@H](O)[C@@H]1O)OCC1=Cc2ccccc2S1(=O)=O` (stereo partly drawn) [DBT-GlcN, 2-[[1,1-dioxobenzo[b]thiophen-2-yl]methyloxocarbonylamino]-2-deoxy-D-glucosamine], in [1], the “LE (ligand efficiency)” value was found to be 0.27 kcal/mol and the “fold weaker TcGlcK inhibition compared to CBZ-GlcN” value stood at 6 fold. Besides, the “changes in the percent activity” value in [2] was “not significant”.

Consider `OC[C@H]1OC(O)[C@H](O)[C@@H](O)[C@@H]1O` (stereo partly drawn) [D-glucose], for which the Km in [3] was 1000 µM; in experiment [1] (read-out: KM for D-glucose, His6-TcGlcK, room temperature (22 °C), pH 7.6), 948 ± 295 µM; in [4] it was 6000 µM; in experiment [5] it was 41800 ± 8700 µM; in [6] it was 60 µM.

Consider `O=C(Cn1ccnc1[N+](=O)[O-])NCc1ccccc1` [Benznidazole, N-Benzyl-2-nitro-1H-imidazole-1-acetamide], for which the parasitological cures with T. cruzi parasites is at most 80%. Moreover, the IC50 in [7] (ref 50) was 1.43 µM; in experiment [7] (ref 51), 1.5 µM.
